Experimental data reported in patent publication US20060247250A1 (TargeGen, Inc., priority 2005, published 2006).

Each molecule was assayed against T1, human c-Src (Homo sapiens, UniProt P12931) (assay: Src kinase inhibition, luciferase-based residual ATP (KinaseGlo)). Settings: recombinant human c-Src, ATP 3 μM, PTK2 substrate, 90 minutes at room temperature.
T1 construct: purchased Panvera/Invitrogen
Assay type: biochemical
Method: The ability of compounds of the present invention to inhibit the activity of three groups of kinases was tested. Kinases tested included the src family (primarily src and yes), the angiogenic growth factors receptors (FGFR1, PDGFRb and VEGFR2) and the ephrin, EphB4. All kinase reactions were conducted in 96-well plates with a final reaction volume of 50 ul.
Recombinant human c-Src or Yes (28 ng/well, Panvera/Invitrogen, Madison Wis.), ATP (3 μM), a tyrosine kinase substrate (PTK2, 250 μM, Promega Corp., Madison Wis.), and test agents (at concentrations ranging from about 1 nM/l to about 100 μM/1), in the presence of Src kinase reaction buffer (Upstate USA, Lake Placid N.Y.). After reacting for about 90 minutes at room temperature, residual ATP was determined using a luciferase-based assay (KinaseGlo, Promega Corp.) as a measure of kinase activity. Data from four wells were then averaged and used to determine IC50 values for the test compounds (Prism software package, GraphPad Software, San Diego Calif.).

T1 sequence (P12931 whole entry): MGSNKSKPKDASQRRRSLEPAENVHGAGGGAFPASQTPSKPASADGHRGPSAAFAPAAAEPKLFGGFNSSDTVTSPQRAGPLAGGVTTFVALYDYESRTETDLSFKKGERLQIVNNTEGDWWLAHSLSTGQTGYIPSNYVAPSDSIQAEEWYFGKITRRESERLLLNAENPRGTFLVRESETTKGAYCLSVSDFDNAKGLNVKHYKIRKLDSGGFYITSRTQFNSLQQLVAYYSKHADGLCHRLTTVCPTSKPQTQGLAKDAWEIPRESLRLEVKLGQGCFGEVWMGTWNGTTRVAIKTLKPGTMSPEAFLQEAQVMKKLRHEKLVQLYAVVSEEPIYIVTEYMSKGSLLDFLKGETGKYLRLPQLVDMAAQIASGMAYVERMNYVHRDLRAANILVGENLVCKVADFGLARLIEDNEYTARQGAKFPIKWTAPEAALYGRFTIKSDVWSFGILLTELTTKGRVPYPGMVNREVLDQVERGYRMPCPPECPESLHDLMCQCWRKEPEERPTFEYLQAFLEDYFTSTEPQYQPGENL

| IC50 | SMILES |
| --- | --- |
| 43 nM | CC(C)N(CCO)C(=O)c1ccc(Nc2ncc(NC(=O)c3cc(O)ccc3Cl)cn2)cc1 [XXII, 2-Chloro-5-hydroxy-N-(2-{4-[(2-hydroxy-ethyl)-isopropyl-carbamoyl]-phenylamino}-pyrimidin-5-yl)-benzamide] |
| 60 nM | Clc1cccc(Cl)c1CNc1cnc(Nc2cccc(OCCN3CCCC3)c2)nc1 [LII, N′-(2,6-Dichloro-benzyl)-N-[3-(2-pyrrolidin-1-yl-ethoxy)-phenyl]-pyrimidine-2,5-diamine] |
| 73 nM | O=C(Nc1cnc(Nc2ccc(S(=O)(=O)NCCN3CCCC3)cc2)nc1)c1c(Cl)cccc1Cl [III, 2,6-Dichloro-N-{2-[4-(2-pyrrolidin-1-yl-ethylsulfamoyl)-phenylamino]-pyrimidin-5-yl}-benzamide] |
| 90 nM | Cc1cccc(C)c1C(=O)Nc1cnc(Nc2ccc(S(=O)(=O)NCCN3CCCC3)cc2)nc1 [VI, 2,6-Dimethyl-N-{2-[4-(2-pyrrolidin-1-yl-ethylsulfamoyl)-phenylamino]-pyrimidin-5-yl}-benzamide] |
| 43 nM | O=C(Nc1cnc(Nc2cccnc2)nc1)c1cc(O)ccc1Cl [XI, Chloro-5-hydroxy-N-[2-(pyridin-3-ylamino)-pyrimidin-5-yl]-benzamide] |
| 1340 nM | O=C(Nc1cc(O)ccc1Cl)c1cnc(Nc2ccc(OCCN3CCCC3)cc2)nc1C(F)(F)F [XXX, 2-[4-(2-Pyrrolidin-1-yl-ethoxy)-phenylamino]-4-trifluoromethyl-pyrimidine-5-carboxylic acid (2-chloro-5-hydroxy-phenyl)-amide] |
| 117 nM | Cc1cccc(C)c1C(=O)Nc1cnc(Nc2ccc(C(=O)NCCN3CCCC3)cc2)nc1 [XXIX, 2,6-Dimethyl-N-{2-[4-(2-pyrrolidin-1-yl-ethylcarbamoyl)-phenylamino]-pyrimidin-5-yl}-benzamide] |
| 13 nM | O=C(Nc1cnc(Nc2ccc(S(=O)(=O)NCCN3CCCC3)cc2)nc1)c1cc(O)ccc1Cl [VII, 2-Chloro-5-hydroxy-N-{2-[4-(2-pyrrolidin-1-yl-ethylsulfamoyl)-phenylamino]-pyrimidin-5-yl}-benzamide] |
| 55 nM | Oc1ccc(Cl)c(CNc2cnc(Nc3ccc(OCCN4CCCC4)cc3)nc2)c1 [XLI, 3-((2-(4-(2-(Pyrrolidin-1-yl)ethoxy)phenylamino)pyrimidin-5-ylamino)methyl)-4-chlorophenol] |
| 1750 nM | O=C(Nc1cnc(Nc2ccc(S(=O)(=O)CCCN3CCCC3)cc2)nc1)c1cc(Cl)ccc1Cl [XXXVII, 2,5-Dichloro-N-{2-[4-(3-pyrrolidin-1-yl-propane-1-sulfonyl)-phenylamino]-pyrimidin-5-yl}-benzamide] |
| 21 nM | CN1CCN(C(=O)c2ccc(Nc3ncc(NC(=O)c4cc(O)ccc4Cl)cn3)cc2)CC1 [XVI, 2-Chloro-5-hydroxy-N-{2-[4-(4-methyl-piperazine-1-carbonyl)-phenylamino]-pyrimidin-5-yl}-benzamide] |
| 3000 nM | Cc1nc(Nc2ncc(NC(=O)c3c(Cl)cccc3Cl)cn2)cc(N2CCN(CCO)CC2)n1 [LIII, 2,6-Dichloro-N-(2-{6-[4-(2-hydroxy-ethyl)-piperazin-1-yl]-2-methyl-pyrimidin-4-ylamino}-pyrimidin-5-yl)-benzamide] |
